From ChEMBL document CHEMBL4346723, “Targeting tropomyosin receptor kinase for cancer therapy” (Eur J Med Chem, 2019) come the findings set out here.

pIC50: −log10 of the molar value.

Data set [1] addresses Tyrosine-protein kinase JAK2 (Homo sapiens, UniProt O60674). In words: Inhibition of recombinant C-terminal His6-tagged human JAK2 (808 to end residues) expressed in baculovirus infected SF21 insect cells using Tyr 1054/1055 biotinylated peptide as substrate after 60 mins by Alphascreen assay.
In another data set the target is T1, Aurora kinase A (Homo sapiens, UniProt O14965).
T1 sequence (O14965 whole entry): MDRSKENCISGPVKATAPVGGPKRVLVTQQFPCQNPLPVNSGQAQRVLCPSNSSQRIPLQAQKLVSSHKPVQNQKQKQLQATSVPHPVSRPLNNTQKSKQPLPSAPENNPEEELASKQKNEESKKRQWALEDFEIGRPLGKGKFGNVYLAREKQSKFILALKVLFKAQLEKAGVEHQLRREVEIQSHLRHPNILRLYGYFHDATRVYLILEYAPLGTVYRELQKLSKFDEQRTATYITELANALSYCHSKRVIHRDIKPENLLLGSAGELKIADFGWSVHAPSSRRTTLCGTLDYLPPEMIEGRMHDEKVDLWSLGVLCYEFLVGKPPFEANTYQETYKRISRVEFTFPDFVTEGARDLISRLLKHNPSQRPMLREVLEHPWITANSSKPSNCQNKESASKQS
In words: Inhibition of aurora A (unknown origin).

Data set [2] deals with RAF proto-oncogene serine/threonine-protein kinase (Homo sapiens, UniProt P04049). In words: Inhibition of c-RAF (unknown origin).
Data set [3] can be described thus: cells. Particulars: Homo sapiens, SUP-M2, 48 h.
Description: Antiproliferative activity against human SUP-M2 cells incubated for 48 hrs by sulforhodamine B assay
A short description of data set [4]: cells. The settings on record: Homo sapiens, SR-786, 48 h.
Description: Antiproliferative activity against human SR786 cells incubated for 48 hrs by sulforhodamine B assay
The subject of a further data set is SU-DHL-1. In words: cells. The settings on record: Homo sapiens, SU-DHL-1, 48 h.
Another data set concerns MV4-11. In words: cells. The settings on record: Homo sapiens, MV4-11, 48 h.
For another data set, the system named is KARPAS-299. In words: cells. The settings on record: Homo sapiens, KARPAS-299, 48 h.
For the next data set, the system named is PANC-1. In words: Antiproliferative activity against human PANC1 cells at 10 uM incubated for 48 hrs by MTT assay relative to control. It counts as functional.
Another data set has as its system BXPC-3. In words: Antiproliferative activity against human BxPC3 cells at 10 uM incubated for 48 hrs by MTT assay relative to control. The format is functional.
The next data set deals with MIA PaCa-2. In words: Antiproliferative activity against human MIAPaCa2 cells at 10 uM incubated for 48 hrs by MTT assay relative to control. The format is functional.
Data set [5] is described as follows: Oral bioavailability in healthy volunteer at 100 mg, twice daily. The settings on record: human, in vivo.
Data set [6] in a line: Inhibition of TRK (unknown origin). The arrangement: species or system Homo sapiens.
Data set [7] is described as follows: AUC (0 to 24 hrs) in cancer patient at 100 mg, twice daily. It counts as ADME. The arrangement: dose 100 mg, time < 24 hr. Particulars: human, in vivo.
A short description of data set [8]: Tmax in cancer patient at 100 mg, twice daily. The format is ADME. Particulars: human, in vivo.
Data set [9] can be described thus: Apparent oral clearance in healthy volunteer at 100 mg, twice daily. Particulars: human, in vivo.
Data set [10] in a line: Half life in healthy volunteer at 100 mg, twice daily. The settings on record: human, in vivo.
Data set [11] in a line: Cmax in cancer patient at 100 mg, twice daily. The format is ADME. Details: dose 100 mg. Particulars: human, in vivo.
A further data set deals with KM12. In words: cells. The settings on record: Homo sapiens.
Data set [12] is described as follows: Volume of distribution at steady state in healthy volunteer at 100 mg, twice daily. Particulars: human, in vivo, read-out: Vdss.
The test system of a further data set is K562. In words: Growth inhibition of human K562 cells. The format is functional, cell-based.
Data set [13] concerns the target High affinity nerve growth factor receptor (Homo sapiens, UniProt P04629). In words: Inhibition TRKA (unknown origin).
Data set [14] addresses BDNF/NT-3 growth factors receptor (Homo sapiens, UniProt Q16620). In words: Inhibition of TRKB (unknown origin).
Another data set concerns IMR-32. In words: Antiproliferative activity against human IMR32 cells by sulforhodamine B assay. The format is functional, cell-based.

High affinity nerve growth factor receptor, sequence (P04629 whole entry): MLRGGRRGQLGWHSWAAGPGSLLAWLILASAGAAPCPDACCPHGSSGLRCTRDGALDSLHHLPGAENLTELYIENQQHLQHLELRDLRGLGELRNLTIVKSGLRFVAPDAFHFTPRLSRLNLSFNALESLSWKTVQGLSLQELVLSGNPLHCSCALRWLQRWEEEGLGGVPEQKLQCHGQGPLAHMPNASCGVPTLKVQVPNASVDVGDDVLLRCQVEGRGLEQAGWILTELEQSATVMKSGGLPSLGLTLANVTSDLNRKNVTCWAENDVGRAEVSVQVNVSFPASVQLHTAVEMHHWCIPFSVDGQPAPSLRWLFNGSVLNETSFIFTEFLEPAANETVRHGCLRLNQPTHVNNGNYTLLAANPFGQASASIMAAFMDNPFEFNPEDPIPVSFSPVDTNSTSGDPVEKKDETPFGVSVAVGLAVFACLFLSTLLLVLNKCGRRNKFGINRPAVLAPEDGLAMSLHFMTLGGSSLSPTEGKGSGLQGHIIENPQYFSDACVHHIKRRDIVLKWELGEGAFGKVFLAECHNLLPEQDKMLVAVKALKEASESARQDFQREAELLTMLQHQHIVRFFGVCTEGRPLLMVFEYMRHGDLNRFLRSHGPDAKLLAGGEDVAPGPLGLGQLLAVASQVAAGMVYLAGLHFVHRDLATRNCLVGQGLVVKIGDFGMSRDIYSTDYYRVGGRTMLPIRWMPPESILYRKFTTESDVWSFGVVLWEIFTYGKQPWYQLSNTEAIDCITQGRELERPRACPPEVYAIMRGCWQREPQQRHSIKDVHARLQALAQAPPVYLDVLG
RAF proto-oncogene serine/threonine-protein kinase, sequence (P04049 whole entry): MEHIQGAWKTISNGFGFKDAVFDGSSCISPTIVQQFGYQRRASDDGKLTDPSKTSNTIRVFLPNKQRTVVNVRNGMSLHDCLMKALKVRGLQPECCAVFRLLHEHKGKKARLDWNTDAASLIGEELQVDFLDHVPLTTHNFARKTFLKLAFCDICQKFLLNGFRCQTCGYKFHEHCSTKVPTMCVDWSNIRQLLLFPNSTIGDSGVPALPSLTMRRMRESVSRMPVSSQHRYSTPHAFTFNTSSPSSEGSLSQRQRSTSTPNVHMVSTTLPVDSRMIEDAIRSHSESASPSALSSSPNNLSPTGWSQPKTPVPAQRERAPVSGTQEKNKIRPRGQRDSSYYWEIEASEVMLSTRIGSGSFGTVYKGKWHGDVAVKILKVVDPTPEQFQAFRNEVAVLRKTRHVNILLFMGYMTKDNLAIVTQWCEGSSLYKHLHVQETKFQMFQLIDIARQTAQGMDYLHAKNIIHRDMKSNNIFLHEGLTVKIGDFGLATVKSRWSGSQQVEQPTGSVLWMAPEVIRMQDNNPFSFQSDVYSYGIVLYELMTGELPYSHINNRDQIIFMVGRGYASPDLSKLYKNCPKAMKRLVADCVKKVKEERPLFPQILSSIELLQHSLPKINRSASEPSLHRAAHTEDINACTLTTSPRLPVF
BDNF/NT-3 growth factors receptor, sequence (Q16620 whole entry): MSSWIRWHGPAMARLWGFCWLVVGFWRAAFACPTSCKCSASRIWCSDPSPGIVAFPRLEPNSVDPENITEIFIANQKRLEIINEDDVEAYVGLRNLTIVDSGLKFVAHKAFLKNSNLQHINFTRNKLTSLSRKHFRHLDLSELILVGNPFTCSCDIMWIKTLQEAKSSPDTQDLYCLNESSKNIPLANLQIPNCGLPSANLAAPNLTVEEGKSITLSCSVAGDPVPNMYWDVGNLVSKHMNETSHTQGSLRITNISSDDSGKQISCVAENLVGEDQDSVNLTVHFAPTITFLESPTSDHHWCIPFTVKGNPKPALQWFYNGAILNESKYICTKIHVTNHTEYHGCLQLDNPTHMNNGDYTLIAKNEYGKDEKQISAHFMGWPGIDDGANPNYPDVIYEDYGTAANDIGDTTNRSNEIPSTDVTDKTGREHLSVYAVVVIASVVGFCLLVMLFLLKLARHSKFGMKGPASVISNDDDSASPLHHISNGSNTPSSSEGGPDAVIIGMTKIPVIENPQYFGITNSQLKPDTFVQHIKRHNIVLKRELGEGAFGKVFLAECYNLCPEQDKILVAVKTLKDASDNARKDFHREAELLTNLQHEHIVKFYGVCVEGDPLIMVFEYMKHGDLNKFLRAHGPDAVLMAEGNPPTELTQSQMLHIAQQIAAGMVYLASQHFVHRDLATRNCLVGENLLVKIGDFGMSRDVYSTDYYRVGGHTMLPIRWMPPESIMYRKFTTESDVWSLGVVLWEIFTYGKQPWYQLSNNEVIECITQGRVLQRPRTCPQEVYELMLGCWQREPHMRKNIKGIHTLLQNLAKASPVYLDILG
Tyrosine-protein kinase JAK2, sequence (O60674 whole entry): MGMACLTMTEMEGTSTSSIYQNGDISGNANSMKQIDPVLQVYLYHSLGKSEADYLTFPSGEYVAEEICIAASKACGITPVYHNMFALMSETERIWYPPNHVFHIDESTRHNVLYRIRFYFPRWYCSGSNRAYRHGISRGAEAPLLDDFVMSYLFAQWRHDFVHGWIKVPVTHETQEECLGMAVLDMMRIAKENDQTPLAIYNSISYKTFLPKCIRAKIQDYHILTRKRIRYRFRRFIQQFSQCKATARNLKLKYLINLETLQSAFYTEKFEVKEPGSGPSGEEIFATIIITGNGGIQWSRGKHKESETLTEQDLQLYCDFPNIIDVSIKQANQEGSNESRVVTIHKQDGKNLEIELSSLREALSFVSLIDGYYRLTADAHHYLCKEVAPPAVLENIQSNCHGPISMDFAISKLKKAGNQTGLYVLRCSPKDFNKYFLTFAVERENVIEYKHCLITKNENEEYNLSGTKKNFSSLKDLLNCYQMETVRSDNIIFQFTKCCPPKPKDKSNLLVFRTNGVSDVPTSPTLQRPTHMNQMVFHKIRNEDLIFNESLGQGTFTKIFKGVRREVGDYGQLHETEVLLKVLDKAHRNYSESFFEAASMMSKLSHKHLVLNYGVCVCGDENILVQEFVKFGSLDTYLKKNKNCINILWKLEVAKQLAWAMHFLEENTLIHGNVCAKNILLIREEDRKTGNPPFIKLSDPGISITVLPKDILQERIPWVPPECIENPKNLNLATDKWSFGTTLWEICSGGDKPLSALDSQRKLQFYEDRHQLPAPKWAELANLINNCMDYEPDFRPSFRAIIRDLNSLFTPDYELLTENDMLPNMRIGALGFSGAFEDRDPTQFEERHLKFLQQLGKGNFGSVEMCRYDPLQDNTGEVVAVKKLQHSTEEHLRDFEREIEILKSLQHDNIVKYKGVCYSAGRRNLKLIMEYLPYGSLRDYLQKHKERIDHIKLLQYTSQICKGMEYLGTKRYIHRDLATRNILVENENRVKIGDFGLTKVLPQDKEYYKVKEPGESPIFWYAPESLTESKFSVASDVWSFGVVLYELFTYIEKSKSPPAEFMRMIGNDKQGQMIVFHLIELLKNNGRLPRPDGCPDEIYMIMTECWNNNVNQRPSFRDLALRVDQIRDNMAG
Description for KARPAS-299: Antiproliferative activity against human KARPAS299 cells incubated for 48 hrs by sulforhodamine B assay
Description for KM12: Growth inhibition of human KM12 cells
Description for MV4-11: Antiproliferative activity against human MV4-11 cells incubated for 48 hrs by sulforhodamine B assay
Description for SU-DHL-1: Antiproliferative activity against human SU-DHL1 cells incubated for 48 hrs by sulforhodamine B assay

Regarding `Cc1cc(Nc2cnc(C#N)c(N[C@@H](C)c3ccc(F)cc3)n2)n[nH]1`, the pIC50 in [1] was 7.48.

With `Cc1cn(-c2cc(C(=O)Nc3cccc(Nc4ccc5c(c4)NC(=O)/C5=C\c4ccc[nH]4)c3)cc(C(F)(F)F)c2)cn1`, the pIC50 against Aurora kinase A is 7.82; in data set [2], 6.94.

As to `CN1CCN(c2ccc(C(=O)Nc3n[nH]c4ccc(Cc5cc(F)cc(F)c5)cc34)c(NC3CCOCC3)c2)CC1` [ENTRECTINIB], the pIC50 in “cells [3]” is 7.39; in “cells [4]”, 7.09; in the data set on SU-DHL-1, 7.70; in the data set with MV4-11 it was 7.09; in the data set on KARPAS-299 it was 7.51.

Turning to `CN(C)S(=O)(=O)c1cc(-c2cnc3[nH]cc(-c4ccncc4)c3c2)cnc1N`, the Activity with PANC-1 is recorded as 30%; in the data set on BXPC-3 it was under 20%; in the data set with MIA PaCa-2, under 20%.

Consider `O=C(Nc1cnn2ccc(N3CCC[C@@H]3c3cc(F)ccc3F)nc12)N1CC[C@H](O)C1.O=S(=O)(O)O` [LAROTRECTINIB SULFATE], for which, in [5], the bioavailability lay within 32 to 37%. The pIC50 was 7.70 to 8.70 in data set [6] and 8.72 with KM12. Also, in data set [7], the AUC came out at 4351 ng·h/mL. For the same molecule, the Tmax in data set [8] was 1 h. The CL/F in [9] worked out at 98 L/h. In addition, the half-life in data set [10] was 2.9 h. The molecule also registered a Cmax in data set [11] of 788 ng/mL. Further, the Vd in [12] worked out at 48 L.

`CCN1CCN(Cc2ccc(NC(=O)Nc3nc4ccc(Oc5ccnc(C(=O)NC)c5)cc4s3)cc2C(F)(F)F)CC1` returned a GI50 with K562 of 51.4 nM. Besides, the figures for the pIC50 (in data set [13]; in data set [14]; in the data set on KM12) were 8.42, 8.35 and 7.72, respectively.

`C[C@H](Oc1cc(-c2cnn(C3CCNCC3)c2)cnc1N)c1c(Cl)ccc(F)c1Cl` showed a pIC50 in the data set on IMR-32 of 7.00.
